For one molecule, 3-hydroxy-3-methyl-hexanoic acid released and Cleavage by enzyme results are on record in patent US7264956B2, “Compounds and methods for inhibiting axillary malodour” (Givaudan SA, priority 2001, dated 2007).

The test system of one experiment is Micrococcus luteus. The experiment can be described thus: Cleavage of the natural malodour precursor by axilla isolate Ax9. The class given is cell-based. As to conditions: 500 ppm precursor, 24 h, 36° C., capillary GC. How it is done:
(§1) The axillary flora of 8 panellists was isolated with the detergent-scrub method: A 6 cm^2 area of the axilla was scrubbed with a phosphate buffer at pH 7 containing 1% Tween 80. The samples were spread-plated on tryptic soy agar amended with 5 g/L of Tween 80 and 1 g/L of lecithin. Single isolates obtained after 48 h incubation were subcultured and characterised. A total of 24 individual strains were identified based on colony and cell morphology, gram-reaction, lipophilic growth, lipase reaction and API identification kits (bioMerieux, France; coryneforms with the API coryne kit and cocci with the ID Staph 32 kit). The strains were grown overnight in a liquid medium (Mueller-Hinton amended with 0.01% Tween 80), harvested by centrifugation and resuspended to a final OD600 of 1 in a semi-synthetic medium (Per litre: 3 g KH2PO4, 1.9 g K2HPO4, 0.2 g yeast extract, 0.2 g MgSO4, 1.4 g NaCl, 1 g NH4Cl, 10 mg MnCl2, 1 mg Fe3Cl2, 1 mg CaCl2). Aliquots of this stationary culture were then amended with a final concentration of 500 ppm of Nα-3-hydroxy-3-methyl-hexanoyl-L-glutamine (5% stock solution dissolved in methanol). After 24 h incubation (with shaking at 300 rpm; 36° C.) the samples were extracted and the amount of released 3-hydroxy-3-methyl-hexanoic acid was determined by capillary GC. […]

Experiment [1] relates to Staphylococcus epidermidis. The experiment can be described thus: Cleavage of the natural malodour precursor by axilla isolate Ax6. The format is cell-based. As to conditions: 500 ppm precursor, 24 h, 36° C., capillary GC. How it is done: as §1
The next experiment concerns Staphylococcus capitis. In words: Cleavage of the natural malodour precursor by axilla isolate Ax1. The class given is cell-based. The conditions noted are these: 500 ppm precursor, 24 h, 36° C., capillary GC. How it is done:
as §1

The subject of a further experiment is Corynebacterium striatum. The experiment can be described thus: Cleavage of the natural malodour precursor by axilla isolate Ax20. The class given is cell-based. The conditions noted are these: 500 ppm precursor, 24 h, 36° C., capillary GC. How it is done: as §1
Experiment [2] deals with Corynebacterium jeikeium. The experiment can be described thus: Cleavage of the natural malodour precursor by axilla isolate Ax15. The conditions noted are these: 500 ppm precursor, 24 h, 36° C., capillary GC. The class given is cell-based. How it is done: as §1
A further experiment has as its system Corynebacterium group G. The experiment can be described thus: Cleavage of the natural malodour precursor by axilla isolate Ax7. As to conditions: 500 ppm precursor, 24 h, 36° C., capillary GC. The format is cell-based. How it is done:
as §1

Experiment [3] addresses T1, enzyme extracted from Corynebacterium striatum A×20 (AMRE, Nα-acyl-glutamine-aminoacylase) (Corynebacterium striatum, UniProt Q8GGD4).
T1 construct: an enzyme may be isolated from cellular extracts obtained from wild-type bacterial strains; endogenous in cells; host or cells: Corynebacterium striatum Ax20 (DSM 14267), mechanically disrupted; crude extract or chromatographically purified enzyme
In words: Substrate specificity of the enzyme (capillary GC of released acid or alcohol). As to conditions: 500 ppm in Buffer A, 24 h incubation. The format is biochemical. How it is done: To understand in detail the structural requirements of substrates, the enzyme extracted from Corynebacterium striatum A×20 was incubated with a wide variety of said compounds related to the originally isolated Nα-3-methyl-3-hydroxy-hexanoyl-L-glutamine present in sweat. Each compound was used at a concentration of 500 ppm in Buffer A, and analysis of released acid or alcohol was done by capillary GC after 24 h of incubation. First, different modifications at the N-terminus were tested.

For experiment [4], the system named is Corynebacterium jeikeium. The experiment can be described thus: Cleavage of the natural malodour precursor by axilla isolate Ax19. The format is cell-based. As to conditions: 500 ppm precursor, 24 h, 36° C., capillary GC. How it is done: as §1
For another experiment, the system named is Corynebacterium bovis. In words: Cleavage of the natural malodour precursor by axilla isolate Ax3. As to conditions: 500 ppm precursor, 24 h, 36° C., capillary GC. The format is cell-based. How it is done: as §1

Each structure is given as a SMILES string.

T1 sequence (Q8GGD4 2-400): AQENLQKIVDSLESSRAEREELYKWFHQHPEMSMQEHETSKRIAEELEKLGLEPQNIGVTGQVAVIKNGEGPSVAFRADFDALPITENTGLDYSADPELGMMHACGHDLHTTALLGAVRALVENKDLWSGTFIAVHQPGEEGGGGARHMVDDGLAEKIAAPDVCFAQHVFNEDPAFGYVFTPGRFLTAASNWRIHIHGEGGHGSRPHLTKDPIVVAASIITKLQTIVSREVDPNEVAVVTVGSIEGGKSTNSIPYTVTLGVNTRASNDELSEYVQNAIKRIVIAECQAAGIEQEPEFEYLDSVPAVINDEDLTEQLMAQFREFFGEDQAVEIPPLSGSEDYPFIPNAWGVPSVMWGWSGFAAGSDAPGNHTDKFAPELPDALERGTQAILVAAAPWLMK

As for `CCCC(C)(O)CC(=O)N[C@@H](CCC(N)=O)C(=O)O` (stereo partly drawn) [compound 1, Nα-(3-hydroxy-3-methyl-hexanoyl)-L-glutamine], the 3-hydroxy-3-methyl-hexanoic acid released with Micrococcus luteus is 0 ppm; in [1] it was 0 ppm; in the experiment with Staphylococcus capitis, 0 ppm; in the experiment on Corynebacterium striatum, 262.7 ppm; in the experiment on Corynebacterium jeikeium [2] it was 37.4 ppm; in the experiment on Corynebacterium group G it was 0 ppm. Moreover, the 3-hydroxy-3-methyl-hexanoic acid released is recorded as 105.1 ppm in the experiment on Corynebacterium jeikeium [4] and 0 ppm in the experiment with Corynebacterium bovis. The Cleavage by enzyme result in [3] was “++ (++ cleavage 10–50%)”.
